Assay results: patent US20250147039A1, “Compounds for complexation of rare earth elements and/or s-, p-, d- block metals, their coordination compounds, peptide conjugates, method of their preparation and use thereof” (USTAV ORGANICKE CHEMIE A BIOCHEMIE AV CR V.V.I., priority 2021, published 2025)

Legend:
Assay type in all cases: physicochemical
[1] = Dissociation of chelates in aq. 1.0M HCl at 80° C. (acid decomplexation kinetic inertness) (Chart 18)
[2] = Dissociation of chelates in aq. 6.0M HCl at 80° C. (acid decomplexation kinetic inertness) (Chart 17)
[3] = Dissociation of chelates in aq. 0.1M HCl at 80° C. (acid decomplexation kinetic inertness) (Chart 19)
[4] = Dissociation of chelates in aq. 0.1M HCl at RT (acid decomplexation kinetic inertness) (Chart 20)

Compound: O=C([O-])CN1CCN2CCN(CC(=O)[O-])CCN(CC1)Cc1cccc(n1)-c1cnnn1Cc1cc(-c3ccccc3)cc(n1)C2.[Zn+2] [TD890]
- fraction of intact chelate ([1]; 1 month): 0%
- fraction of intact chelate ([1]; 1 week): 0%
- fraction of intact chelate ([1]; 1 hour): 0%
- fraction of intact chelate ([1]; 1 day): 0%
- fraction of intact chelate ([2]; 1 month): 0%
- fraction of intact chelate ([2]; 1 week): 0%
- fraction of intact chelate ([2]; 1 hour): 0%
- fraction of intact chelate ([2]; 1 day): 0%
- fraction of intact chelate ([3]; 1 month): 0%
- fraction of intact chelate ([3]; 1 week): 0%
- fraction of intact chelate ([3]; 1 hour): 46%
- fraction of intact chelate ([3]; 1 day): 0%
- fraction of intact chelate ([4]; 1 month): 5%
- fraction of intact chelate ([4]; 1 week): 54%
- fraction of intact chelate ([4]; 1 hour): 100%
- fraction of intact chelate ([4]; 1 day): 93%

Compound: O=C1C[N@@]2CC[N@]3CC[N@@](CC[N@](CC2)Cc2cccc(n2)-c2cnnn2Cc2cc(-c4ccccc4)cc(n2)C3)CC(=O)[O][Tm][O]1 [TD601]
- fraction of intact chelate ([1]; 1 month): 100%
- fraction of intact chelate ([1]; 1 week): 100%
- fraction of intact chelate ([1]; 1 hour): 100%
- fraction of intact chelate ([1]; 1 day): 100%
- fraction of intact chelate ([2]; 1 month): 69%
- fraction of intact chelate ([2]; 1 week): 92%
- fraction of intact chelate ([2]; 1 hour): 100%
- fraction of intact chelate ([2]; 1 day): 99%
- fraction of intact chelate ([3]; 1 month): 100%
- fraction of intact chelate ([3]; 1 week): 100%
- fraction of intact chelate ([3]; 1 hour): 100%
- fraction of intact chelate ([3]; 1 day): 100%
- fraction of intact chelate ([4]; 1 month): 100%
- fraction of intact chelate ([4]; 1 week): 100%
- fraction of intact chelate ([4]; 1 hour): 100%
- fraction of intact chelate ([4]; 1 day): 100%

Compound: O=C1C[N@@]2CC[N@]3CC[N@@](CC[N@](CC2)Cc2cccc(n2)-c2cnnn2Cc2cc(-c4ccccc4)cc(n2)C3)CC(=O)[O][La][O]1 [TD651]
- fraction of intact chelate ([1]; 1 month): 0%
- fraction of intact chelate ([1]; 1 week): 0%
- fraction of intact chelate ([1]; 1 hour): 0%
- fraction of intact chelate ([1]; 1 day): 0%
- fraction of intact chelate ([2]; 1 month): 0%
- fraction of intact chelate ([2]; 1 week): 0%
- fraction of intact chelate ([2]; 1 hour): 0%
- fraction of intact chelate ([2]; 1 day): 0%
- fraction of intact chelate ([3]; 1 month): 0%
- fraction of intact chelate ([3]; 1 week): 0%
- fraction of intact chelate ([3]; 1 hour): 0%
- fraction of intact chelate ([3]; 1 day): 0%
- fraction of intact chelate ([4]; 1 month): 0%
- fraction of intact chelate ([4]; 1 week): 0%
- fraction of intact chelate ([4]; 1 hour): 76%
- fraction of intact chelate ([4]; 1 day): 4%

Compound: O=C([O-])CN1CCN2CCN(CC(=O)[O-])CCN(CC1)Cc1cccc(n1)-c1cnnn1Cc1cc(-c3ccccc3)cc(n1)C2.[Pb+2] [TD876]
- fraction of intact chelate ([1]; 1 month): 0%
- fraction of intact chelate ([1]; 1 week): 0%
- fraction of intact chelate ([1]; 1 hour): 0%
- fraction of intact chelate ([1]; 1 day): 0%
- fraction of intact chelate ([2]; 1 month): 0%
- fraction of intact chelate ([2]; 1 week): 0%
- fraction of intact chelate ([2]; 1 hour): 0%
- fraction of intact chelate ([2]; 1 day): 0%
- fraction of intact chelate ([3]; 1 month): 0%
- fraction of intact chelate ([3]; 1 week): 0%
- fraction of intact chelate ([3]; 1 hour): 0%
- fraction of intact chelate ([3]; 1 day): 0%
- fraction of intact chelate ([4]; 1 month): 0%
- fraction of intact chelate ([4]; 1 week): 0%
- fraction of intact chelate ([4]; 1 hour): 6%
- fraction of intact chelate ([4]; 1 day): 0%
